Results reported in patent US7157442B2, “Antibacterial compound” (Sankyo Company, Limited, priority 1999, dated 2007).
In brackets after ≈: the same amount, converted by molar mass.

Test system: M. tuberculosis No. 74
Assay: In vitro antibacterial activity (2): MIC by broth dilution method
Assay type: cell-based, Mycobacterium tuberculosis
Conditions: rifampicin-resistant strain; for MIC: Mycobacterium tuberculosis, NO.74, Middlebrook 7H9 broth, 35° C. for 10–21 days, read-out: MICs against Mycobacterium tuberculosis, M. tuberculosis No. 74

Structure (SMILES)	MIC	antibacterial activity against M. tuberculosis No. 74 (in words)
CO[C@H]1/C=C/O[C@@]2(C)Oc3c(C)c(O)c4c(O)c(c(/C=N/N5CCN(C)CC5)c(O)c4c3C2=O)NC(=O)/C(C)=C\C=C\[C@H](C)[C@H](O)[C@@H](C)[C@@H](O)[C@@H](C)[C@H](OC(C)=O)[C@@H]1C [rifampicin, reference compound]	128 µg/mL (≈ 156 µM)	–
CO[C@H]1[C@@H](O)[C@H](n2ccc(=O)[nH]c2=O)O[C@@H]1[C@@H](O[C@H]1OC(C(=O)Nc2ccc(F)c(F)c2)=C[C@H](O)[C@@H]1O)C(N)=O [Exemplification Compound No. 3712]	8 µg/mL (≈ 14 µM)	excellent antibacterial activity
